Measurements: patent US5470852A, “Tetrahydroprotoberberine quaternary ammonium compounds useful in for treating arrhythmia” (priority 1991, dated 1995)
“Also recorded” adds a separate entry of the source. Where two headings read alike, the source gives them in different places.

Key:
anaesthetized rats = conditions: for Incidence of VF: n=10; for Death / animals with VF / animals without VF: of n=10; for therapeutic index (TI), VF / therapeutic index (TI), arrhythmias: rat, in vivo
[1] = system: normal papillary muscles in rats; test: Action potential in normal papillary muscles in rats; assay type: cell-based, rat; conditions: n=6, I13 concentration not given
From the text: (§1) Effect of I13 (μ mol/L) on estimates of action potential induced in
(§2) normal and pathological papillary muscles in rats.

rabbits = test: Electrically-induced ventricular fibrillation threshold (VFT) in rabbits; assay type: in vivo, rabbit; conditions: for VFT Before: baseline
[2] = system: pathological papillary muscles in rats (hypertrophy); test: Action potential in hypertrophic papillary muscles in rats (abdominal aorta occlusion); assay type: cell-based, rat
From the text: as §1, §2

[3] = system: Langendorff's perfused rat hearts; test: Ischemia/reperfusion-induced arrhythmias, I13 in perfusate, Langendorff's perfused rat hearts; assay type: cell-based
From the text: FIG. 2. Influence of I13 in perfusate on the time course of reperfusion-induced arrhythmias in Langendorff's perfused rat hearts

[4] = system: left ventricular activity in rabbits; test: Monophasic action potential (MAP) recorded from left ventricle in rabbits; assay type: in vivo, rabbit
From the text: The effectiveness of I13 in lengthening APD is confirmed by the influence on monophasic action potential (MAP) recorded from the left ventricular activity in rabbits.

[5] = hypertrophy, n=5, I13 concentration not given

COc1ccc2c(c1OC)C[N+]1(Cc3ccc(Cl)cc3)CCc3cc4c(cc3C1C2)OCO4 (stereo not shown) [Compound I13, 7-(4-chlorobenzyl)-5,8,13,13a-tetrahydroberberine chloride]
Antiarrhythmic effect (anaesthetized rats; po 30 mg/kg, coronary occlusion 5 min, X ± SD): 0 ± 0 | Antiarrhythmic effect (anaesthetized rats; po 30 mg/kg, coronary occlusion 10 min, X ± SD): 1.6 ± 1.6 | Incidence of VF (anaesthetized rats; po 30 mg/kg): 20% | Death (anaesthetized rats; po 30 mg/kg): 1 | animals with VF (anaesthetized rats; po 30 mg/kg): 2 | animals without VF (anaesthetized rats; po 30 mg/kg): 7 | Antiarrhythmic effect (anaesthetized rats; po 30 mg/kg, reperfusion 0.17 min, X ± SD): 3.2 ± 1.2 | Antiarrhythmic effect (anaesthetized rats; po 30 mg/kg, reperfusion 0.33 min, X ± SD): 2.8 ± 2.1 | Antiarrhythmic effect (anaesthetized rats; po 30 mg/kg, reperfusion 0.5 min, X ± SD): 1.7 ± 1.7 | Antiarrhythmic effect (anaesthetized rats; po 30 mg/kg, reperfusion 1 min, X ± SD): 1.1 ± 1.5 | Antiarrhythmic effect (anaesthetized rats; po 30 mg/kg, reperfusion 1.5 min, X ± SD): 1.1 ± 1.5 | Antiarrhythmic effect (anaesthetized rats; po 30 mg/kg, reperfusion 3 min, X ± SD): 1.6 ± 2.4 | Antiarrhythmic effect (anaesthetized rats; po 30 mg/kg, reperfusion 4 min, X ± SD): 0.8 ± 1.3 | Antiarrhythmic effect (anaesthetized rats; po 30 mg/kg, reperfusion 5 min, X ± SD): 0.2 ± 0.2 | Antiarrhythmic effect (anaesthetized rats; po 30 mg/kg, reperfusion 6 min, X ± SD): 0.2 ± 0.2 | Antiarrhythmic effect (anaesthetized rats; po 30 mg/kg, reperfusion 7 min, X ± SD): 0.15 ± 0.24 | Antiarrhythmic effect (anaesthetized rats; po 30 mg/kg, reperfusion 15 min, X ± SD): 0.11 ± 0.22 | Antiarrhythmic effect (anaesthetized rats; po 30 mg/kg, reperfusion 25 min, X ± SD): 0.05 ± 0.17 | Arrhythmic scores (anaesthetized rats; po 100 mg/kg, X ± SD): 0.7 ± 0.2 | Lethal risk (anaesthetized rats; po 100 mg/kg, X ± SD): 41 ± 0 | Antiarrhythmic effect (anaesthetized rats; po 100 mg/kg, coronary occlusion 5 min, X ± SD): 0.20 ± 0.24 | Antiarrhythmic effect (anaesthetized rats; po 100 mg/kg, coronary occlusion 10 min, X ± SD): 0.3 ± 0.6 | Incidence of VF (anaesthetized rats; po 100 mg/kg): 0% | Death (anaesthetized rats; po 100 mg/kg): 0 | animals with VF (anaesthetized rats; po 100 mg/kg): 0 | animals without VF (anaesthetized rats; po 100 mg/kg): 10 | Antiarrhythmic effect (anaesthetized rats; po 100 mg/kg, reperfusion 0.17 min, X ± SD): 0.10 ± 0.21 | Antiarrhythmic effect (anaesthetized rats; po 100 mg/kg, reperfusion 0.33 min, X ± SD): 0.05 ± 0.16 | Antiarrhythmic effect (anaesthetized rats; po 100 mg/kg, reperfusion 0.5 min, X ± SD): 0.4 ± 1.2 | Antiarrhythmic effect (anaesthetized rats; po 100 mg/kg, reperfusion 1 min, X ± SD): 0.05 ± 0.16 | Antiarrhythmic effect (anaesthetized rats; po 100 mg/kg, reperfusion 1.5 min, X ± SD): 0.05 ± 0.16 | Antiarrhythmic effect (anaesthetized rats; po 100 mg/kg, reperfusion 3 min, X ± SD): 0.05 ± 0.16 | Antiarrhythmic effect (anaesthetized rats; po 100 mg/kg, reperfusion 4 min, X ± SD): 0.05 ± 0.16 | Antiarrhythmic effect (anaesthetized rats; po 100 mg/kg, reperfusion 5 min, X ± SD): 0.05 ± 0.16 | Antiarrhythmic effect (anaesthetized rats; po 100 mg/kg, reperfusion 6 min, X ± SD): 0.05 ± 0.16 | Antiarrhythmic effect (anaesthetized rats; po 100 mg/kg, reperfusion 7 min, X ± SD): 0.05 ± 0.16 | Antiarrhythmic effect (anaesthetized rats; po 100 mg/kg, reperfusion 15 min, X ± SD): 0.05 ± 0.16 | Antiarrhythmic effect (anaesthetized rats; po 100 mg/kg, reperfusion 25 min, X ± SD): 0.05 ± 0.16 | therapeutic index (TI), VF (anaesthetized rats; iv): 35 | therapeutic index (TI), arrhythmias (anaesthetized rats; iv): 26 | therapeutic index (TI), VF (anaesthetized rats; po): 92 | therapeutic index (TI), arrhythmias (anaesthetized rats; po): 70 | APA [1]: 108 ± 9 mv | APD20 [1]: 5 ± 1 ms | APD50 [1]: 15 ± 4 ms | APD90 [1]: 44 ± 9 ms | ERP [1]: 43 ± 8 ms | RP [1]: 83 ± 4 mv | Vmax [1]: 200 ± 50 v/s | VFT Before (rabbits; intra-duodenal 4.5 mg/kg group): 5.8 ± 0.3 volt | VFT Before (rabbits; intra-duodenal 15 mg/kg group): 5.2 ± 0.9 volt | VFT Before (rabbits; iv 1.5 mg/kg group): 5.2 ± 0.6 volt | potency in elevating VFT relative to lidocaine (rabbits; i.v.): ten times more potent than lidocaine | AUC (area under curve, VFT effect) (rabbits; id 4.5 mg/kg): 48.1 | AUC (area under curve, VFT effect) (rabbits; id 15 mg/kg): 83.7 | VFT After (rabbits; intra-duodenal 4.5 mg/kg): 8.9 ± 0.4 volt | ΔVFT (rabbits; intra-duodenal 4.5 mg/kg): 3.1 ± 0.4 volt | ΔVFT % (rabbits; intra-duodenal 4.5 mg/kg): 53.0 ± 7.6% | VFT After (rabbits; intra-duodenal 15 mg/kg): 9.9 ± 2.2 volt | ΔVFT (rabbits; intra-duodenal 15 mg/kg): 4.8 ± 1.5 volt | ΔVFT % (rabbits; intra-duodenal 15 mg/kg): 92.1 ± 19.5% | AUC (area under curve, VFT effect) (rabbits; iv 1.5 mg/kg): 11.1 | VFT After (rabbits; iv 1.5 mg/kg): 8.1 ± 1.1 volt | ΔVFT (rabbits; iv 1.5 mg/kg): 2.8 ± 0.8 volt | ΔVFT % (rabbits; iv 1.5 mg/kg): 54.4 ± 16.9% | AUC (area under curve, VFT effect) (rabbits; iv 4.5 mg/kg): 14.4 | VFT After (rabbits; iv 4.5 mg/kg): 8.8 ± 1.1 volt | ΔVFT (rabbits; iv 4.5 mg/kg): 3.6 ± 0.6 volt | ΔVFT % (rabbits; iv 4.5 mg/kg): 72.2 ± 9.7% | influence on APD in hypertrophic myocardium [2]: could not be further exaggerated; also recorded: no action on hypertrophic myocardium | Vmax in left ventricular hypertrophy ([2]; abdominal aorta occlusion, rats): completely inhibited | APA [2, 5]: 104 ± 4 mv | APD20 [2, 5]: 8 ± 2 ms | APD50 [2, 5]: 20 ± 4 ms | APD90 [2, 5]: 45 ± 5 ms | ERP [2, 5]: 45 ± 9 ms | RP [2, 5]: 81 ± 3 mv | Vmax [2, 5]: 210 ± 40 v/s | protection against VT and VF induced by ischemia and reperfusion ([3]; 3 μmol/L): effective protection against the VT and VF | ke ([3]; 3 μmol/L (FIG. 2)): 0.030 min⁻¹ | ke ([3]; 10 μmol/L (FIG. 2)): 0.020 min⁻¹ | lengthening of APD (MAP) [4]: confirmed
